Measured values taken from patent US5510356A, “Bisquinolines and processes for their production and use to treat malaria” (priority 1991, dated 1996).

Experiments:
CQ-resistant malaria = settings: literature; cited from earlier work
P. berghei = settings: cited from earlier work
P. falciparum = assay: In vitro activity against P. falciparum (both clones, D-6 and W-2); assay type: cell-based, Plasmodium falciparum
Experimental: (§1) In vitro activity against P. falciparum was determined using a modification of the semiautomated microdilution technique of Desjardins et al. (1979) and Milhous et al. (1985). Two P. falciparum malaria parasite clones, designated as Sierra Leone (D-6) and Indochina (W-2), are used in susceptibility testing. The former is resistant to mefloquine, and the latter to CQ, pyrimethamine, sulfadoxine, and quinine. Test compounds are dissolved in dimethylsulfoxide, and solutions serially diluted with culture media. Erythrocytes with 0.25 to 0.5% parasitemia are added to each well of a 96-well microdilution plate to give a final hematocrit of 1.5%. […] Results are reported as […] (ng/mL) values. For a complete description of this assay, see Milhous et al. (1985) and Lin et al. (1987).

[1] = system: P. falciparum clone W-2 (Indochina); assay type: cell-based, Plasmodium falciparum
Experimental: as §1

[2] = system: P. falciparum clone D-6 (Sierra Leone); assay type: cell-based, Plasmodium falciparum; settings: D-6 clone (resistant to mefloquine)
Experimental: as §1

[3] = Solubility in DMSO (noted in NMR work); settings: 13C NMR spectra not obtainable
[4] = system: P. berghei (strain KBG 173); assay: In vivo activity against P. berghei in mice, single subcutaneous dose 3 days after infection; design: species or system Plasmodium berghei; mice; settings: for P. berghei T-C: single dose 3 days post infection, n = 5
Experimental: In vivo activity against P. berghei was obtained against a drug-sensitive strain of P. berghei (strain KBG 173) (Osdene et al., 1967). Each test compound is administered subcutaneous to five male mice per dilution in a single subcutaneous dose 3 days after infection. Results are expressed in T-C values which indicate the mean survival time of the treated mice beyond that of the control animals; untreated mice survive on average 6.2 days. Compounds are classified as active (A) when the mean survival time of the treated mice is twice that of the controls (>6.2 days), and curative (C) when one or more test animals live 60 days post-infection. Deaths from 0-2 days post-treatment are attributed to toxicity (T).

| Compound | activity against malaria / CQ-resistant malaria (in words) (CQ-resistant malaria) | activity against P. berghei in mice, compared with CQ (P. berghei; mice, Singh et al., 1971) | in vitro activity against P. falciparum (in words) (P. falciparum) | Resistance Index (P. falciparum; IC50 (W2)/IC50 (D6) ratio) | antimalarial activity (in words) (P. falciparum; general statement, refers to Table I) | P. falciparum IC50 (nM) W-2 [1] | P. falciparum IC50 (nM) D-6 [2] | solubility in DMSO [3] | in vivo activity against P. berghei (in words) [4] | P. berghei T-C ([4]; 40 mg/kg s.c.) | P. berghei T-C ([4]; 160 mg/kg s.c.) | P. berghei T-C ([4]; 640 mg/kg s.c.) | resistance of P. berghei (P. berghei; CQ-resistant strain of P. berghei, Warhurst, 1966) |
| --- | --- | --- | --- | --- | --- | --- | --- | --- | --- | --- | --- | --- | --- |
| Clc1ccc2c(NN3CCN(Nc4ccnc5cc(Cl)ccc45)CC3)ccnc2c1 [1,4-bis(7-chloro-4-quinolylamino)piperazine] | active against malaria | significantly more effective than is CQ against P. berghei in mice |  |  |  |  |  |  |  |  |  |  |  |
| Clc1ccc2c(NCCNc3ccnc4cc(Cl)ccc34)ccnc2c1 [Compound 1, N^1 N^2, -Bis(7-chloroquinolin-4-y1)ethane-1,2-diamine] |  |  | approximately an order of magnitude less potent in vitro | 1.6 | antimalarial activity | 27.0 nM | 17.3 nM | low solubilities in DMSO | without activity in vivo | 0.0 days | 0.4 days | 1.4 days |  |
| dichloroquinazine | active against CQ-resistant falciparum malaria |  |  |  |  |  |  |  |  |  |  |  | Resistance to dichloroquinazine, however, is noted for a CQ-resistant strain of P. berghei |
